Results published in PubChem BioAssay (NCI).
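The compound was tested at five concentrations on cells cultured in 96-well plates, with a 48-hour exposure period. GI50 marks 50% less growth. TGI denotes the concentration required for complete inhibition of growth.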

What was measured:
Assay in all cases: DTP human tumour cell line panel, 48 h
BT-549 breast = system: BT-549 breast
MDA-MB-435 = system: MDA-MB-435
SK-MEL-5 melanoma = system: SK-MEL-5 melanoma
TK-10 renal = system: TK-10 renal
SF-295 CNS = system: SF-295 CNS
COLO 205 colon = system: COLO 205 colon
HOP-92 NSCLC = system: HOP-92 NSCLC
KM12 colon = system: KM12 colon
PC-3 prostate = system: PC-3 prostate
MDA-MB-231 breast = system: MDA-MB-231 breast
MCF7 breast = system: MCF7 breast
SK-MEL-28 melanoma = system: SK-MEL-28 melanoma
HCT-15 colon = system: HCT-15 colon
SNB-19 CNS = system: SNB-19 CNS
CCRF-CEM leukemia = system: CCRF-CEM leukemia
DU-145 prostate = system: DU-145 prostate
HOP-62 NSCLC = system: HOP-62 NSCLC
RPMI-8226 leukemia = system: RPMI-8226 leukemia
SR leukemia = system: SR leukemia
UACC-257 melanoma = system: UACC-257 melanoma
A549 NSCLC = system: A549 NSCLC
HS 578T breast = system: HS 578T breast
786-0 renal = system: 786-0 renal
OVCAR-8 ovarian = system: OVCAR-8 ovarian
A498 renal = system: A498 renal
NCI-H460 lung = system: NCI-H460 lung
SF-539 CNS = system: SF-539 CNS
SNB-75 CNS = system: SNB-75 CNS
MALME-3M melanoma = system: MALME-3M melanoma
SF-268 CNS = system: SF-268 CNS
RXF 393 renal = system: RXF 393 renal
U251 CNS = system: U251 CNS
T-47D breast = system: T-47D breast
HT29 colon = system: HT29 colon
M14 melanoma = system: M14 melanoma
ACHN renal = system: ACHN renal
EKVX NSCLC = system: EKVX NSCLC
SK-MEL-2 melanoma = system: SK-MEL-2 melanoma
OVCAR-4 ovarian = system: OVCAR-4 ovarian
NCI-H522 lung = system: NCI-H522 lung
SW-620 colon = system: SW-620 colon
IGROV1 ovarian = system: IGROV1 ovarian
CAKI-1 renal = system: CAKI-1 renal
SN12C renal = system: SN12C renal
UO-31 renal = system: UO-31 renal
NCI-H23 lung = system: NCI-H23 lung
HCC-2998 colon = system: HCC-2998 colon
NCI/ADR-RES ovarian = system: NCI/ADR-RES ovarian
UACC-62 melanoma = system: UACC-62 melanoma
LOX IMVI melanoma = system: LOX IMVI melanoma
HCT-116 colon = system: HCT-116 colon
OVCAR-5 ovarian = system: OVCAR-5 ovarian
K-562 leukemia = system: K-562 leukemia
OVCAR-3 ovarian = system: OVCAR-3 ovarian
MOLT-4 leukemia = system: MOLT-4 leukemia
HL-60(TB) leukemia = system: HL-60(TB) leukemia

With `CO[C@H]1/C=C/[C@@](C)(O)/C=C/C(=O)O[C@H](C)[C@@H](C)CC/C=C/1C` the GI50 (BT-549 breast) was 19.8 µM, the TGI (BT-549 breast) was 63.6 µM and the GI50 (MDA-MB-435) was 23.1 µM. It also gave a TGI (MDA-MB-435) of 83.1 µM, a GI50 (SK-MEL-5 melanoma) of 14 µM and a TGI (SK-MEL-5 melanoma) of 28.4 µM. For the same compound, the GI50 (TK-10 renal) was 19.7 µM, the TGI (TK-10 renal) was 88.4 µM and the GI50 (SF-295 CNS) was 16.5 µM. For the same compound, the TGI (SF-295 CNS) was 39.8 µM, the GI50 (COLO 205 colon) was 20.6 µM and the TGI (COLO 205 colon) was 47.8 µM. The GI50 (HOP-92 NSCLC) was 7.62 µM, the TGI (HOP-92 NSCLC) was 26.1 µM and the GI50 (KM12 colon) was 15.8 µM. It also gave a TGI (KM12 colon) of 41.2 µM, a GI50 (PC-3 prostate) of 18.2 µM and a TGI (PC-3 prostate) of 53.7 µM. It also gave a GI50 (MDA-MB-231 breast) of 14.5 µM, a TGI (MDA-MB-231 breast) of 45.1 µM and a GI50 (MCF7 breast) of 16.5 µM. It also gave a TGI (MCF7 breast) of 56 µM, a GI50 (SK-MEL-28 melanoma) of 16.9 µM and a TGI (SK-MEL-28 melanoma) of 42.6 µM. The GI50 (HCT-15 colon) was 7.35 µM, the TGI (HCT-15 colon) was 22.5 µM and the GI50 (SNB-19 CNS) was 21.9 µM. The TGI (SNB-19 CNS) was 81.8 µM, the GI50 (CCRF-CEM leukemia) was 10.1 µM and the TGI (CCRF-CEM leukemia) was over 100 µM. For the same compound, the GI50 (DU-145 prostate) was 22.4 µM, the TGI (DU-145 prostate) was 71.8 µM and the GI50 (HOP-62 NSCLC) was 16.3 µM. It also gave a TGI (HOP-62 NSCLC) of 59.2 µM, a GI50 (RPMI-8226 leukemia) of 15.5 µM and a TGI (RPMI-8226 leukemia) of 97.3 µM. For the same compound, the GI50 (SR leukemia) was 15 µM, the TGI (SR leukemia) was over 100 µM and the GI50 (UACC-257 melanoma) was 26.7 µM. The TGI (UACC-257 melanoma) was 87.3 µM, the GI50 (A549 NSCLC) was 23 µM and the TGI (A549 NSCLC) was over 100 µM. The GI50 (HS 578T breast) was 23.9 µM, the TGI (HS 578T breast) was over 100 µM and the GI50 (786-0 renal) was 16.8 µM. It also gave a TGI (786-0 renal) of 34.3 µM, a GI50 (OVCAR-8 ovarian) of 26.9 µM and a TGI (OVCAR-8 ovarian) of over 100 µM. The GI50 (A498 renal) was 12 µM, the TGI (A498 renal) was 32 µM and the GI50 (NCI-H460 lung) was 17.4 µM. It also gave a TGI (NCI-H460 lung) of 48.6 µM, a GI50 (SF-539 CNS) of 15.2 µM and a TGI (SF-539 CNS) of 31.3 µM. For the same compound, the GI50 (SNB-75 CNS) was 17.5 µM, the TGI (SNB-75 CNS) was 40.4 µM and the GI50 (MALME-3M melanoma) was 13.1 µM. For the same compound, the TGI (MALME-3M melanoma) was 37.3 µM, the GI50 (SF-268 CNS) was 19.7 µM and the TGI (SF-268 CNS) was over 100 µM. For the same compound, the GI50 (RXF 393 renal) was 11 µM, the TGI (RXF 393 renal) was 24.5 µM and the GI50 (U251 CNS) was 14.2 µM. It also gave a TGI (U251 CNS) of 40.6 µM, a GI50 (T-47D breast) of 14.1 µM and a TGI (T-47D breast) of over 100 µM. For the same compound, the GI50 (HT29 colon) was 19.4 µM, the TGI (HT29 colon) was 48.7 µM and the GI50 (M14 melanoma) was 15.7 µM. For the same compound, the TGI (M14 melanoma) was 43.3 µM, the GI50 (ACHN renal) was 18.7 µM and the TGI (ACHN renal) was 55.9 µM. It also gave a GI50 (EKVX NSCLC) of 15.7 µM, a TGI (EKVX NSCLC) of 76.8 µM and a GI50 (SK-MEL-2 melanoma) of 23.6 µM. The TGI (SK-MEL-2 melanoma) was 63.5 µM, the GI50 (OVCAR-4 ovarian) was 14.9 µM and the TGI (OVCAR-4 ovarian) was 76.3 µM. It also gave a GI50 (NCI-H522 lung) of 15.2 µM, a TGI (NCI-H522 lung) of 36.4 µM and a GI50 (SW-620 colon) of 15.1 µM. For the same compound, the TGI (SW-620 colon) was 35.7 µM, the GI50 (IGROV1 ovarian) was 17.2 µM and the TGI (IGROV1 ovarian) was 62.3 µM. It also gave a GI50 (CAKI-1 renal) of 21.1 µM, a TGI (CAKI-1 renal) of 69.7 µM and a GI50 (SN12C renal) of 17.6 µM. The TGI (SN12C renal) was 59.2 µM, the GI50 (UO-31 renal) was 8.38 µM and the TGI (UO-31 renal) was 21.1 µM. The GI50 (NCI-H23 lung) was 14.8 µM, the TGI (NCI-H23 lung) was 32.4 µM and the GI50 (HCC-2998 colon) was 15.6 µM. The TGI (HCC-2998 colon) was 30.7 µM, the GI50 (NCI/ADR-RES ovarian) was 15 µM and the TGI (NCI/ADR-RES ovarian) was 40.5 µM. For the same compound, the GI50 (UACC-62 melanoma) was 13.8 µM, the TGI (UACC-62 melanoma) was 30 µM and the GI50 (LOX IMVI melanoma) was 11.3 µM. It also gave a TGI (LOX IMVI melanoma) of 26 µM, a GI50 (HCT-116 colon) of 12.9 µM and a TGI (HCT-116 colon) of 26.2 µM. The GI50 (OVCAR-5 ovarian) was 17.7 µM, the TGI (OVCAR-5 ovarian) was 39.2 µM and the GI50 (K-562 leukemia) was 15.2 µM. The TGI (K-562 leukemia) was over 100 µM, the GI50 (OVCAR-3 ovarian) was 11.3 µM and the TGI (OVCAR-3 ovarian) was 29.4 µM. It also gave a GI50 (MOLT-4 leukemia) of 21.2 µM, a TGI (MOLT-4 leukemia) of 98.6 µM and a GI50 (HL-60(TB) leukemia) of 22.7 µM. The TGI (HL-60(TB) leukemia) was 54.5 µM.
